Results published in patent US8729073B2, “5-methyl-1-(naphthalen-2-yl)-1H-pyrazole derivatives and their use in potentiating the effect of opioid analgesics” (Laboratorios Del Dr. Esteve, S.A., priority 2010, dated 2014).
“Also recorded” adds a separate entry of the source.

What was measured:
[1] = test system: capsaicin-induced neuropathic pain; assay: Effect on capsaicin in development of mechanical allodynia (von Frey filaments); type: in vivo; conditions: mice, test compound given before 1 μg capsaicin (1% DMSO) injected into paw, FIG. 2
Procedure: Effect on Capsaicin in Development of Mechanical Allodynia
This model uses the von-Frey Filaments and is a model to test the effects or symptoms of neuropathic pain, allodynia etc.
Interest of the model: • The injection of 1 μg of capsaicin to experimental animals produces acute pain followed by hyperalgesia/allodynia • The mechanisms involved in capsaicin-induced acute pain and hyperalgesia are relatively well known (mainly activation of peripheral nociceptors and sensitization of spinal cord neurons, respectively)
After habituation mice were according to FIG. 1 first treated with the test-compound (or solvent in controls). Then 1 μg capsaicin (1% DMSO) is injected into their paw resulting in developing pain in the effected paw. The effected paw is then treated with a mechanical stimulus and the latency time before the paw is withdrawn is measured.

morphine analgesia = assay: Tail-flick test in mice, modulation of morphine analgesia; type: in vivo; conditions: male CD1 mice; Example n^o 1 5-20 mg/kg i.p. coadministered with fixed dose of morphine 2 mg/kg s.c.; 30 min post-administration; FIG. 3

SMILES: Cc1cc(OCCN2CCOCC2=O)nn1-c1ccc2ccccc2c1 [Example n^o 1, 4-(2-(5-methyl-1-(naphthalen-2-yl)-1H-pyrazol-3-yloxy)ethyl)morpholin-3-one]
- analgesia in capsaicin-induced neuropathic pain (latency time before the paw is withdrawn, mechanical stimulus) [1]: dose dependency of the treatment with the compound of example 1 showing analgesia in capsaicin-induced neuropathic pain
- potentiation of morphine analgesia (% Analgesia, tail-flick latency) (morphine analgesia): enhances the analgesic effect of a fixed dose of morphine; also recorded: dose-dependently increased the analgesic efficacy of morphine
